# According to US8518912B2, “Phosphonic acid derivates and their use as P2Y12 receptor antagonists” (Actelion Pharmaceuticals Ltd., priority 2008, dated 2013):
# Biological target: T1, human P2Y12 receptor (Homo sapiens, UniProt Q9H244)
# T1 construct: expressed in transfected cells; host or cells: Chinese Hamster Ovary (CHO) cells
# Assay: P2Y12 receptor binding assay
# Details: CHO cells with recombinant human P2Y12 receptor; tritium-labeled 2-methyl-S-ADP; 2 hours at RT
# Procedure: Chinese Hamster Ovary (CHO) cells with recombinant expression of the human P2Y12 receptor were cultured in 24 well cell-culture plates. Cells were washed three times with binding buffer (50 mM Tris pH 7.4, 100 mM NaCl, […], 0.5% BSA). The cells were then incubated with 0.5 ml per well binding buffer containing tritium-labeled 2-methyl-thio-adenosine 5′-diphosphate (2-methyl-S-ADP) (between 100,000 and 300,000 dpm per well) and various concentrations of test compounds. After incubation at RT for 2 hours, cells were washed three times with binding buffer. Then, cells were solubilized by addition of 0.5 ml solubilization buffer (SDS, NaOH, EDTA). The content of each well was then transferred into beta-counter vials and 2.0 ml of Ultima Gold Scintillation liquid was added.
# T1 sequence (Q9H244 whole entry): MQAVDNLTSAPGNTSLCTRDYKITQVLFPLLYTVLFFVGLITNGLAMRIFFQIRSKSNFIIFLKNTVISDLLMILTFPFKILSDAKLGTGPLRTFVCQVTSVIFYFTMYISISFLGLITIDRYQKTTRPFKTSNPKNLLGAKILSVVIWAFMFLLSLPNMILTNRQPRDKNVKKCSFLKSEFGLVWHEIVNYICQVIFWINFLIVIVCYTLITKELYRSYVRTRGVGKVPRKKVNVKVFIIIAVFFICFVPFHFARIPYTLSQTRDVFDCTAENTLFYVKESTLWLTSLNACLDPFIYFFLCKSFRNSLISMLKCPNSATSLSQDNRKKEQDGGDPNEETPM
row,IC50 [nM],Structure (SMILES)
1,3.1,"CCCCOC(=O)N1CCN(C(=O)[C@H](CP2(=O)Nc3ccccc3CO2)NC(=O)c2cc(N3CC[C@H](OC)C3)nc(-c3ccccc3)n2)CC1 (mixture of isomers) [Example 103, 4-[(R)-2-{[6-((S)-3-Methoxy-pyrrolidin-1-yl)-2-phenyl-pyrimidine-4-carbonyl]-amino}-3-(2-oxo-1,4-dihydro-2H-2λ^5-benzo[d][1,3,2]oxazaphosphinin-2-yl)-propionyl]-piperazine-1-carboxylic acid butyl ester]"
2,3.2,"CCCCOC(=O)N1CCN(C(=O)[C@H](CCP(=O)(O)O)NC(=O)c2cc(-n3cccn3)nc(-c3ccccc3)n2)CC1 [Example 7, 4-{(S)-2-[(2-phenyl-6-pyrazol-1-yl-pyrimidine-4-carbonyl)-amino]-4-phosphono-butyryl}-piperazine-1-carboxylic acid butyl ester]"
3,5.9,"CCCCOC(=O)N1CCN(C(=O)[C@H](CCP(=O)(O)O)NC(=O)c2cc(N3CCOCC3)nc(-c3ccccc3)n2)CC1 [Example 12, 4-{(S)-2-[(6-morpholin-4-yl-2-phenyl-pyrimidine-4-carbonyl)-amino]-4-phosphono-butyryl}-piperazine-1-carboxylic acid butyl ester]"
4,4.5,"CCCCOC(=O)N1CCN(C(=O)[C@H](CP(=O)(O)O)NC(=O)c2cc(NCC)nc(-c3ccccc3)n2)CC1 [Example 16, 4-{(R)-2-[(6-ethylamino-2-phenyl-pyrimidine-4-carbonyl)-amino]-3-phosphono-propionyl}-piperazine-1-carboxylic acid butyl ester]"
5,78,"CCCCOC(=O)N1CCN(C(=O)[C@H](CCP(=O)(O)O)NC(=O)c2cc(N3CC[C@H](OC)C3)nc(-c3cccc(F)c3)n2)CC1 [Example 21, 4-((S)-2-{[2-(3-fluoro-phenyl)-6-((S)-3-methoxy-pyrrolidin-1-yl)-pyrimidine-4-carbonyl]-amino}-4-phosphono-butyryl)-piperazine-1-carboxylic acid butyl ester]"
6,13,"CCCCOC(=O)N1CCN(C(=O)[C@H](CP(=O)(O)O)NC(=O)c2cc(-c3ccc(OC)cc3)nc(-c3ccccc3)n2)CC1 [Example 34, 4-((R)-2-{[6-(4-methoxy-phenyl)-2-phenyl-pyrimidine-4-carbonyl]-amino}-3-phosphono-propionyl)-piperazine-1-carboxylic acid butyl ester]"
7,14,"CCCCOC(=O)N1CCN(C(=O)[C@H](CP(=O)(O)O)NC(=O)c2cc(C3CC3)nc(-c3ccccc3)n2)CC1 [Example 35, 4-{(R)-2-[(6-cyclopropyl-2-phenyl-pyrimidine-4-carbonyl)-amino]-3-phosphono-propionyl}-piperazine-1-carboxylic acid butyl ester]"
8,78,"CCCCOC(=O)N1CCN(C(=O)[C@H](CP(=O)(O)O)NC(=O)c2cc(O[C@H]3CCOC3)nc(-c3ccccc3)n2)CC1 [Example 37, 4-[(R)-2-({2-phenyl-6-[(S)-(tetrahydro-furan-3-yl)oxy]-pyrimidine-4-carbonyl}-amino)-3-phosphono-propionyl]-piperazine-1-carboxylic acid butyl ester]"
9,61,"CCOC(=O)N1CCN(C(=O)[C@H](CP(=O)(O)O)NC(=O)c2cc(N3CC[C@H](OC)C3)nc(-c3ccccc3)n2)CC1C (stereo partly drawn) [Example 38, 4-((R)-2-{[6-((S)-3-methoxy-pyrrolidin-1-yl)-2-phenyl-pyrimidine-4-carbonyl]-amino}-3-phosphono-propionyl)-2-methyl-piperazine-1-carboxylic acid ethyl ester]"
10,5.5,"CCCCOC(=O)N1CCN(C(=O)[C@H](CP(=O)(O)O)NC(=O)c2cc(CCCOC)nc(-c3ccccc3)n2)CC1 [Example 45, 4-((R)-2-{[6-(3-methoxy-propyl)-2-phenyl-pyrimidine-4-carbonyl]-amino}-3-phosphono-propionyl)-piperazine-1-carboxylic acid butyl ester]"
11,49,"CCCCOC(=O)N1CCN(C(=O)[C@H](CCP(=O)(OCOC(=O)C(C)(C)C)OCOC(=O)C(C)(C)C)NC(=O)c2cc(N3CC[C@H](OC)C3)nc(-c3ccccc3)n2)CC1 [Example 48, 4-((S)-4-[bis-(2,2-dimethyl-propionyloxymethoxy)-phosphoryl]-2-{[6-((S)-3-methoxy-pyrrolidin-1-yl)-2-phenyl-pyrimidine-4-carbonyl]-amino}-butyryl)-piperazine-1-carboxylic acid butyl ester]"
12,162,"CCCCOC(=O)N1CCN(C(=O)C(NC(=O)c2cc(N3CC[C@H](OC)C3)nc(-c3ccccc3)n2)P(=O)(O)O)CC1 (stereo partly drawn) [Example 56, 4-(2-{[6-((S)-3-methoxy-pyrrolidin-1-yl)-2-phenyl-pyrimidine-4-carbonyl]-amino}-2-phosphono-acetyl)-piperazine-1-carboxylic acid butyl ester]"
13,7.5,"CCOC(=O)N1CCN(C(=O)[C@H](Cc2ccc(CP(=O)(O)O)cc2)NC(=O)c2cc(N3CC[C@H](OC)C3)nc(-c3ccccc3)n2)CC1 [Example 61, 4-[(S)-2-{[6-((S)-3-Methoxy-pyrrolidin-1-yl)-2-phenyl-pyrimidine-4-carbonyl]-amino}-3-(4-phosphonomethyl-phenyl)-propionyl]-piperazine-1-carboxylic acid ethyl ester]"
14,69,"CCCCOC(=O)N1CCN(C(=O)[C@@H](CCCP(=O)(O)O)NC(=O)c2cc(N3CC[C@H](OC)C3)nc(-c3ccccc3)n2)CC1 [Example 63, 4-((R)-2-{[6-((S)-3-Methoxy-pyrrolidin-1-yl)-2-phenyl-pyrimidine-4-carbonyl]-amino}-5-phosphono-pentanoyl)-piperazine-1-carboxylic acid butyl ester]"
15,13,"CCOC(=O)N1CCN(C(=O)[C@H](Cc2cccc(P(=O)(O)O)c2)NC(=O)c2cc(N3CC[C@H](OC)C3)nc(-c3ccccc3)n2)CC1 [Example 67, 4-[(S)-2-{[6-((S)-3-Methoxy-pyrrolidin-1-yl)-2-phenyl-pyrimidine-4-carbonyl]-amino}-3-(3-phosphono-phenyl)-propionyl]-piperazine-1-carboxylic acid ethyl ester]"
16,4.5,"CCCCOC(=O)N1CCN(C(=O)C(NC(=O)c2cc(N3CC[C@H](OC)C3)nc(-c3ccccc3)n2)c2cccc(P(=O)(O)O)c2)CC1 (stereo partly drawn) [Example 71, 4-[2-{[6-((S)-3-Methoxy-pyrrolidin-1-yl)-2-phenyl-pyrimidine-4-carbonyl]-amino}-2-(3-phosphono-phenyl)-acetyl]-piperazine-1-carboxylic acid butyl ester]"
17,3,"CCCCOC(=O)N1CCN(C(=O)[C@H](CP(=O)(O)O)NC(=O)c2cc(N3CCN(C)CC3)nc(-c3ccccc3)n2)CC1 [Example 73, 4-((R)-2-{[6-(4-Methyl-piperazin-1-yl)-2-phenyl-pyrimidine-4-carbonyl]-amino}-3-phosphono-propionyl)-piperazine-1-carboxylic acid butyl ester]"

row,Structure (SMILES),IC50 [nM]
1,"CCCCOC(=O)N1CCN(C(=O)[C@H](CP2(=O)OCc3cccc(C)c3O2)NC(=O)c2cc(N3CC[C@H](OC)C3)nc(-c3ccccc3)n2)CC1 (mixture of isomers) [Example 110, 4-[(R)-2-{[6-((S)-3-Methoxy-pyrrolidin-1-yl)-2-phenyl-pyrimidine-4-carbonyl]-amino}-3-(8-methyl-2-oxo-4H-2λ^5-benzo[1,3,2]dioxaphosphinin-2-yl)-propionyl]-piperazine-1-carboxylic acid butyl ester]",2.8
2,"CCCCOC(=O)N1CCN(C(=O)[C@H](CP(=O)(O)OCOC(C)=O)NC(=O)c2cc(N3CC[C@H](OC)C3)nc(-c3ccccc3)n2)CC1 (mixture of isomers) [Example 115, 4-((R)-3-(Acetoxymethoxy-hydroxy-phosphoryl)-2-{[6-((S)-3-methoxy-pyrrolidin-1-yl)-2-phenyl-pyrimidine-4-carbonyl]-amino}-propionyl)-piperazine-1-carboxylic acid butyl ester]",5
3,"CCCCOC(=O)N1CCN(C(=O)[C@H](CCP(=O)(NCC(=O)OCC)NCC(=O)OCC)NC(=O)c2cc(N3CC[C@H](OC)C3)nc(-c3ccccc3)n2)CC1 [Example 75, N,N′-Bis-(ethoxycarbonylmethyl)-3-{(S)-[6-((S)-3-methoxy-pyrrolidin-1-yl)-2-phenyl-pyrimidine-4-carbonyl]-amino}-4-oxo-4-(4-butoxy-carbonyl-piperazin-1-yl)-butyl-phosphonic acid diamide]",308
4,"CCCCOC(=O)N1CCN(C(=O)[C@H](CP(=O)(OCOC(=O)CCC)OCOC(=O)CCC)NC(=O)c2cc(N3CC[C@H](OC)C3)nc(-c3ccccc3)n2)CC1 [Example 78, 4-((R)-3-(Bis-butyryloxymethoxy-phosphoryl)-2-{[6-((S)-3-methoxy-pyrrolidin-1-yl)-2-phenyl-pyrimidine-4-carbonyl]-amino}-propionyl)-piperazine-1-carboxylic acid butyl ester]",7
5,"CCCCOC(=O)N1CCN(C(=O)[C@H](CP(=O)(N[C@@H](Cc2ccccc2)C(=O)OC)N[C@@H](Cc2ccccc2)C(=O)OC)NC(=O)c2cc(N3CC[C@H](OC)C3)nc(-c3ccccc3)n2)CC1 [Example 87, N,N′-Bis-((S)-1-methoxycarbonyl-2-phenyl-ethyl)-2-{(R)-[6-((S)-3-methoxy-pyrrolidin-1-yl)-2-phenyl-pyrimidine-4-carbonyl]-amino}-3-oxo-3-(4-butoxy-carbonyl-piperazin-1-yl)-propyl-phosphonic acid diamide]",11
